Data: publication doi:10.1101/2024.09.25.615046, “Identification of SLC45A4 as a pain gene encoding a neuronal polyamine transporter” (bioRxiv, 2024)

Experiments:
[1] = target: T1, SLC45A4 (HsSLC45A4) (Homo sapiens, UniProt Q5BKX6); assay: nanoDSF thermal shift, purified protein; assay type: binding; design: full-length; uptake: C-terminal FLAG tag, pLexM, overexpressed in mouse Neuro-2A cells; nanoDSF: purified in DDM:CHS (eGFP-His tag removed by TEV); settings: 2.5-50 mM metabolite, DDM:CHS, 150 mM NaCl, 20 mM Tris or MES pH 7.5
T1 sequence (Q5BKX6 1-768): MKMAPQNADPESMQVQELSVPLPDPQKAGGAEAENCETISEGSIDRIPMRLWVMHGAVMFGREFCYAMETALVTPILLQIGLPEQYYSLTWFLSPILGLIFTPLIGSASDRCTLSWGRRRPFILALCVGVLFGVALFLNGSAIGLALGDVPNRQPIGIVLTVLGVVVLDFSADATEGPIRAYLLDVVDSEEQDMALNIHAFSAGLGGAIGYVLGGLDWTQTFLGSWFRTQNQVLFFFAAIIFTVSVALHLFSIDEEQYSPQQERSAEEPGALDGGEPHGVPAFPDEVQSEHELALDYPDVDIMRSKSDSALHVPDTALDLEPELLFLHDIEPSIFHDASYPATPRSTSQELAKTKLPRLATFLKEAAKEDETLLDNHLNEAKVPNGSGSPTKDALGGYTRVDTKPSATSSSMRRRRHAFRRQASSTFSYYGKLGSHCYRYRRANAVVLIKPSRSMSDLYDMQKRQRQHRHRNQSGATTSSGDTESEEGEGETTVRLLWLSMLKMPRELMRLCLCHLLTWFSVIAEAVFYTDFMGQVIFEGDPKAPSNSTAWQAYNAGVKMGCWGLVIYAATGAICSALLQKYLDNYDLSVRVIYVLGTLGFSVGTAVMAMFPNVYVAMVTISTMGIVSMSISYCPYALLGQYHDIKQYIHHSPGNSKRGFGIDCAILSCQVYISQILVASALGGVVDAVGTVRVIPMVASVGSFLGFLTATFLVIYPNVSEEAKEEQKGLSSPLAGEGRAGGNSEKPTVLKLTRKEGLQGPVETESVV

[2] = target: T1, SLC45A4 (HsSLC45A4); assay: competition of […]-spermidine uptake, Neuro-2A cells; assay type: cell-based; design: full-length; uptake: C-terminal FLAG tag, pLexM, overexpressed in mouse Neuro-2A cells; settings: 1 uM 14C-spermidine, pH 7.5, 37 °C; unreliable unit: printed mM is probably µM (lost symbol font)

IC50 [2] [mM]	SMILES	thermal stability [1]
–	NCCCCNCCCN [Spd]	polyamines Spm and Spd eliciting the largest response
74	NCCCCN [Put]	–
–	NCCCNCCCCNCCCN [Spm]	polyamines Spm and Spd eliciting the largest response
67	NCCCCCN [Cad]	–
